# Data: PubChem BioAssay AID330 (DTP/NCI, 2004)
# “And” between values parts separate entries of the source, which are not always exact repeats. Equal entries are not always repeated. Toxic doses and inconclusive results are not listed.
# Test system: P388 leukemia ip, CD2F1 mice, survival T/C
# Assay: NCI In Vivo Anticancer Drug Screen. Data for tumor model P388 Leukemia (intraperitoneal) in CD2F1 (CDF1) mice
# Conditions: endpoint: median survival time, higher = longer survival
# Method in brief: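 Mice carrying the transplanted tumor received test compound or vehicle. Survival was recorded in each group, and the value is the treated-group measurement divided by that of the vehicle-treated control group.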
# [1] = dose: 100.0 mg/kg/injection, schedule: Q01DX001 (ip), vehicle: saline with Tween-80
# [2] = dose: 200.0 mg/kg/injection, schedule: Q01DX001 (ip), vehicle: saline with Tween-80
# [3] = dose: 400.0 mg/kg/injection, schedule: Q01DX001 (ip), vehicle: saline with Tween-80
# [4] = dose: 50.0 mg/kg/injection, schedule: Q01DX009 (ip), vehicle: saline with Tween-80
# [5] = dose: 100.0 mg/kg/injection, schedule: Q01DX009 (ip), vehicle: saline with Tween-80
# [6] = dose: 50.0 mg/kg/injection, schedule: Q01DX005 (ip), vehicle: Klucel (hydroxypropylcellulose) (HPC)
# [7] = dose: 100.0 mg/kg/injection, schedule: Q01DX005 (ip), vehicle: Klucel (hydroxypropylcellulose) (HPC)
# [8] = dose: 200.0 mg/kg/injection, schedule: Q01DX005 (ip), vehicle: Klucel (hydroxypropylcellulose) (HPC)
# [9] = dose: 60.0 mg/kg/injection, schedule: Q01DX005 (ip), vehicle: saline with Tween-80
# [10] = dose: 120.0 mg/kg/injection, schedule: Q01DX005 (ip), vehicle: saline with Tween-80
# [11] = dose: 240.0 mg/kg/injection, schedule: Q01DX005 (ip), vehicle: saline with Tween-80
# [12] = dose: 200.0 mg/kg/injection, schedule: Q01DX009 (ip), vehicle: saline with Tween-80
# [13] = dose: 400.0 mg/kg/injection, schedule: Q01DX009 (ip), vehicle: saline with Tween-80
# [14] = dose: 50.0 mg/kg/injection, schedule: Q01DX009 (ip), vehicle: saline
# [15] = dose: 50.0 mg/kg/injection, schedule: Q01DX009 (ip), vehicle: Klucel (hydroxypropylcellulose) (HPC)
# [16] = dose: 100.0 mg/kg/injection, schedule: Q01DX009 (ip), vehicle: Klucel (hydroxypropylcellulose) (HPC)
# [17] = dose: 200.0 mg/kg/injection, schedule: Q01DX009 (ip), vehicle: Klucel (hydroxypropylcellulose) (HPC)
structure (smiles),measurement,setting,value
COC1=CC(=O)C(=O)C(C(C)(C)C)=C1,T/C,"dose: 15.0 mg/kg/injection, schedule: Q01DX005 (ip), vehicle: Klucel (hydroxypropylcellulose) (HPC)",104 % of control
same,T/C,"dose: 30.0 mg/kg/injection, schedule: Q01DX005 (ip), vehicle: Klucel (hydroxypropylcellulose) (HPC)",86 % of control
COc1cc(/C(C)=N/N=C(\C)c2ccc(O)c(OC)c2)ccc1O,T/C,[1],100 % of control
same,T/C,[2],95 % of control
same,T/C,[3],100 % of control
CNc1nc(-c2ccccc2)c(-c2ccccc2)[nH]1,T/C,"dose: 6.25 mg/kg/injection, schedule: Q04DX002 (ip), vehicle: saline",105 % of control
same,T/C,"dose: 12.5 mg/kg/injection, schedule: Q04DX002 (ip), vehicle: saline",100 % of control
same,T/C,"dose: 25.0 mg/kg/injection, schedule: Q04DX002 (ip), vehicle: saline",97 % of control
COC(=O)c1ccc(SCCC(=O)CCl)cc1,T/C,[4],115 % of control
same,T/C,[5],116 % of control
CC(=O)Nc1cc(Cl)cc2c1-c1ccc(Cl)cc1C2N(C)C (stereo not given),T/C,[6],96 % of control
same,T/C,[7],100 % of control
same,T/C,[8],87 % of control
C=C(C(=O)OC)C1C=CCCCC1 (stereo not given),T/C,[1],114 % of control
same,T/C,[2],113 % of control
same,T/C,[3],105 % of control
C=C(C)C#CC1(O)C=C(OC)C(OC)=CC1=O (stereo not given),T/C,[9],105 % of control
same,T/C,[10],107 % of control
same,T/C,[11],88 % of control
N[C@H](Cc1c[nH]c2ccccc12)C(=O)O,T/C,[5],98 % of control
same,T/C,[12],103 % of control
same,T/C,[13],103 % of control
Nc1nnc(Cc2ccc(Br)cc2)o1,T/C,[9],98 % of control
same,T/C,[10],97 % of control
same,T/C,[11],100 % of control
CCCCCCC[CH2][Sn](=[O])[CH2]CCCCCCC,T/C,"dose: 12.5 mg/kg/injection, schedule: Q01DX009 (ip), vehicle: saline",100 % of control
same,T/C,"dose: 25.0 mg/kg/injection, schedule: Q01DX009 (ip), vehicle: saline",116 % of control
same,T/C,[4],101 % of control
same,T/C,[14],100 % of control
O=S(=O)(CBr)OCCCl,T/C,"dose: 50.0 mg/kg/injection, schedule: Q01DX005 (ip), vehicle: saline with Tween-80",120 % of control
same,T/C,"dose: 150.0 mg/kg/injection, schedule: Q01DX005 (ip), vehicle: saline with Tween-80",159 % of control
same,T/C,"dose: 200.0 mg/kg/injection, schedule: Q01DX005 (ip), vehicle: saline with Tween-80",200 % of control
O=C1NN(c2ccccc2)C(=O)/C1=C\c1ccccc1,T/C,[4],91 % of control
same,T/C,"dose: 75.0 mg/kg/injection, schedule: Q01DX009 (ip), vehicle: saline with Tween-80",100 % of control
same,T/C,[5],94 % of control
same,T/C,"dose: 150.0 mg/kg/injection, schedule: Q01DX009 (ip), vehicle: saline with Tween-80",99 % of control
same,T/C,[12],95 % of control
same,T/C,"dose: 300.0 mg/kg/injection, schedule: Q01DX009 (ip), vehicle: saline with Tween-80",95 % of control
same,T/C,[13],114 % of control
same,T/C,"dose: 600.0 mg/kg/injection, schedule: Q01DX009 (ip), vehicle: saline with Tween-80",104 % of control
C(=C\c1cc2ccc(C3=NCCN3)cc2o1)/c1cc2ccc(C3=NCCN3)cc2o1,T/C,"dose: 12.5 mg/kg/injection, schedule: Q04DX003 (ip), vehicle: suspension in saline",107 % of control
same,T/C,"dose: 25.0 mg/kg/injection, schedule: Q04DX003 (ip), vehicle: suspension in saline",114 % of control
same,T/C,"dose: 50.0 mg/kg/injection, schedule: Q04DX003 (ip), vehicle: suspension in saline",106 % of control
same,T/C,"dose: 100.0 mg/kg/injection, schedule: Q04DX003 (ip), vehicle: suspension in saline",122 % of control
C[n+]1c(-c2cccc(OCCCCCCCCOc3cccc(-c4c5cc(N)ccc5c5ccc(N)cc5[n+]4C)c3)c2)c2cc(N)ccc2c2ccc(N)cc21,T/C,"dose: 0.09 mg/kg/injection, schedule: Q01DX009 (ip), vehicle: water",163 % of control
same,T/C,"dose: 0.19 mg/kg/injection, schedule: Q01DX009 (ip), vehicle: water",154 % of control
same,T/C,"dose: 0.38 mg/kg/injection, schedule: Q01DX009 (ip), vehicle: water",151 % of control
same,T/C,"dose: 0.39 mg/kg/injection, schedule: Q01DX009 (ip), vehicle: water",170 % of control
same,T/C,"dose: 0.75 mg/kg/injection, schedule: Q01DX009 (ip), vehicle: water",150 % of control
same,T/C,"dose: 0.78 mg/kg/injection, schedule: Q01DX009 (ip), vehicle: water",179 % of control
same,T/C,"dose: 1.5 mg/kg/injection, schedule: Q01DX009 (ip), vehicle: water",91 % of control
same,T/C,"dose: 1.56 mg/kg/injection, schedule: Q01DX009 (ip), vehicle: water",213 % of control
NC(=O)C(N)C(F)c1ccccc1 (stereo not given),T/C,[9],102 % of control
same,T/C,[10],95 % of control
C[N+](C)(C)NC1OC(C(O)S(=O)(=O)O)C(OCc2ccccc2)C(OCc2ccccc2)C1O (stereo not given),T/C,[14],104 % of control
same,T/C,"dose: 100.0 mg/kg/injection, schedule: Q01DX009 (ip), vehicle: saline",106 % of control
CC(C)(C)c1cc(C2C(C#N)C(=O)NC(=O)C2C#N)cc(C(C)(C)C)c1O (stereo not given),T/C,[15],103 % of control
same,T/C,[16],100 % of control
same,T/C,[17],94 % of control
CCN(CC)C(=O)OC1Cc2ccccc2CCc2ccccc2C1,T/C,"dose: 100.0 mg/kg/injection, schedule: Q04DX003 (ip), vehicle: Klucel (hydroxypropylcellulose) (HPC)",103 % of control
same,T/C,"dose: 200.0 mg/kg/injection, schedule: Q04DX003 (ip), vehicle: Klucel (hydroxypropylcellulose) (HPC)",101 % of control
same,T/C,"dose: 400.0 mg/kg/injection, schedule: Q04DX003 (ip), vehicle: Klucel (hydroxypropylcellulose) (HPC)",101 % of control
COc1ccc(C2=NNC(=O)C3NC(=O)C(C#N)=C(C(=O)NN)C23c2ccc(OC)cc2)cc1 (stereo not given),T/C,[9],99 % of control
same,T/C,[10],91 % of control
same,T/C,[11],89 % of control
O=C(O)c1ccc2c3c(ncnc13)-c1ccccc1C2=O,T/C,"dose: 6.25 mg/kg/injection, schedule: Q01DX009 (ip), vehicle: Klucel (hydroxypropylcellulose) (HPC)",103 % of control
same,T/C,"dose: 12.5 mg/kg/injection, schedule: Q01DX009 (ip), vehicle: Klucel (hydroxypropylcellulose) (HPC)",111 % of control and 96 % of control
same,T/C,"dose: 25.0 mg/kg/injection, schedule: Q01DX009 (ip), vehicle: Klucel (hydroxypropylcellulose) (HPC)",112 % of control and 96 % of control
same,T/C,[15],105 % of control and 109 % of control and 111 % of control
same,T/C,[16],100 % of control
same,T/C,[17],109 % of control
CN(C)c1ccc(C(=C2C=CC(=[N+](C)C)C=C2)c2ccc(N(C)C)cc2)cc1,T/C,"dose: 0.19 mg/kg/injection, schedule: Q01DX009 (ip), vehicle: saline",108 % of control
same,T/C,"dose: 0.39 mg/kg/injection, schedule: Q01DX009 (ip), vehicle: saline",123 % of control
CCOc1ccc2nc3cc(N=Nc4cc5ccccc5[nH]4)ccc3c(N)c2c1,T/C,[1],97 % of control
same,T/C,[2],94 % of control
same,T/C,[3],103 % of control
CCOC(=O)c1nc(SC)sc1N,T/C,[9],95 % of control
same,T/C,[10],102 % of control
CSc1c(Cl)cc(Cl)cc1C(=O)O,T/C,"dose: 16.5 mg/kg/injection, schedule: Q01DX009 (ip), vehicle: saline with Tween-80",100 % of control and 110 % of control
same,T/C,"dose: 25.0 mg/kg/injection, schedule: Q01DX009 (ip), vehicle: saline with Tween-80",105 % of control and 106 % of control
same,T/C,"dose: 37.5 mg/kg/injection, schedule: Q01DX009 (ip), vehicle: saline with Tween-80",117 % of control and 97 % of control
same,T/C,"dose: 50.0 mg/kg/injection, schedule: Q01DX009 (ip), vehicle: saline + alcohol",112 % of control
same,T/C,"dose: 100.0 mg/kg/injection, schedule: Q01DX009 (ip), vehicle: saline + alcohol",110 % of control
same,T/C,"dose: 200.0 mg/kg/injection, schedule: Q01DX009 (ip), vehicle: saline + alcohol",112 % of control
C(=C\C1N=C1c1ccccc1)/c1ccc2ccccc2c1 (stereo not given),T/C,"dose: 50.0 mg/kg/injection, schedule: Q04DX002 (ip), vehicle: suspension in saline",99 % of control
same,T/C,"dose: 100.0 mg/kg/injection, schedule: Q04DX002 (ip), vehicle: suspension in saline",97 % of control
same,T/C,"dose: 200.0 mg/kg/injection, schedule: Q04DX002 (ip), vehicle: suspension in saline",99 % of control
COc1ccc2nccc(CO)c2c1,T/C,[6],102 % of control
same,T/C,[7],102 % of control
same,T/C,[8],96 % of control
